# Structures can show the parent of a compound that is named as a salt.
# Assays:
# [1] = target: T1, MYCbHLHZip (Homo sapiens, UniProt P01106); assay: Assay 2B MYC SPR assay; assay type: binding; details: equilibrium binding experiments
# T1 construct: An amino coupling procedure was used to immobilize MYCbHLHZip protein on a CM5 sensor chip
# Protocol: FIG. 3: A) SPR assay to determine affinity of Example 1 to MYC. MYC bHLHZip protein was immobilized by aminocoupling on a CM5 sensor chip. Example 1 was injected at various concentrations in a kinetic experiment. The reference surface was subtracted from the analyte surface to generate a sensorgram. […] B) Four MYC equilibrium binding experiments with Example 1 summarized in an equilibrium binding plot. […] Equilibrium binding experiments of MYC with Example 2 and control compound (non-binder) were plotted as well. Assay 2B. MYC SPR Assay To analyze the direct binding of compounds to MYC, the direct binding of compounds to MYC was detected by surface plasmon resonance (SPR) as described above (Biological example 1—Assay 1B). An amino coupling procedure was used to immobilize MYCbHLHZip protein on a CM5 sensor chip (GE Healthcare) resulting in immobilization levels of approximately 800 respectively 1000 RU. The compounds were injected at different concentrations, one at a time, over the surface for 50-80 seconds with a flow rate of 30 μl/min. Afterwards the compounds were allowed to dissociate for 240 seconds in running buffer (137 mM NaCl, 2.7 mM KCl, 10 mM Na2HPO4, 1.8 mM KH2PO4, 0.005% Tween-20, 1% DMSO, pH 7.4). To remove all remaining analyte the surface was regenerated with 2M Urea for 30 seconds and thereafter 1M NaCl, 2.7 mM KCl, 10 mM Na2HPO4, 1.8 mM KH2PO4, 1% DMSO, pH 7.4 for 30 seconds. Sensorgrams were generated by subtraction of the reference (blank immobilized) surface. Binding responses were related to respective compounds' Rmax. Rmax is the maximum response of a compound when it binds with a 1:1 stochiometry to the protein; Rmax=(MW analyte/MW ligand)×immobilized ligand level on the chip (RU) x stoichiometry (1:1). Kinetic experiments were carried out where recombinant MYC bHLHZip was immobilized on the chip and different concentrations of Example 1 were injected as above. […] Example 2-6 were analyzed for their MYC binding properties by equilibrium binding experiments as described for example 1.
# [2] = test system: MYCN-amplified neuroblastoma cells (SK-N-DZ, Kelly, IMR-32); assay: Assay 5A neuroblastoma cell growth (WST-1), MYCN-amplified; assay type: cell-based; details: Homo sapiens
# Protocol: (§1) FIG. 6: A-B) Neuroblastoma cell lines with (SK-N-DZ, Kelly and IMR-32) or without (SK-N-F1, SK-N-RA and SK-N-AS) MYCN-amplification were exposed to different concentrations of Example 1, Example 2 and control compound, respectively, for 48 hours. Cell growth and viability was estimated by measuring metabolic activity. C) Growth of TGR-1 (wt), HO15.19 (MYC knockout) and HOmyc3 (MYC reconstituted HO15.19) Rat1 fibroblasts, as measured by the WST-1 assay after treatment with Example 1. Data are shown as mean±standard deviation of 3-5 biological experiments, each with 3 technical repeats.
# (§2) Assay 5A: Neuroblastoma Cell Growth
# (§3) Neuroblastoma cell lines with (SK-N-DZ, Kelly and IMR-32) or without (SK-N-F1, SK-N-RA and SK-N-AS) MYCN-amplification were exposed to different concentrations of example compounds for 48 hours. Cell growth and viability was estimated by measuring metabolic activity by incubating cells in triplicates with WST-1 (Roche) in medium at 37° C. and 5% CO2 for 2 hours after which absorbance was measured with an Omega Fluostar (BMG Labtech) in a 96 well plate format.
# [3] = target: T2, MYC:MAX (MYC-GLuc-C + MAX-GLuc-N) in HEK293 cells (Homo sapiens, UniProt P01106); assay: Assay 3C GLuc complementation assay; assay type: cell-based; details: HEK293
# T2 construct: expressed in transfected cells; host or cells: HEK293 (also COS-7)
# T2 sequence (P01106 whole entry): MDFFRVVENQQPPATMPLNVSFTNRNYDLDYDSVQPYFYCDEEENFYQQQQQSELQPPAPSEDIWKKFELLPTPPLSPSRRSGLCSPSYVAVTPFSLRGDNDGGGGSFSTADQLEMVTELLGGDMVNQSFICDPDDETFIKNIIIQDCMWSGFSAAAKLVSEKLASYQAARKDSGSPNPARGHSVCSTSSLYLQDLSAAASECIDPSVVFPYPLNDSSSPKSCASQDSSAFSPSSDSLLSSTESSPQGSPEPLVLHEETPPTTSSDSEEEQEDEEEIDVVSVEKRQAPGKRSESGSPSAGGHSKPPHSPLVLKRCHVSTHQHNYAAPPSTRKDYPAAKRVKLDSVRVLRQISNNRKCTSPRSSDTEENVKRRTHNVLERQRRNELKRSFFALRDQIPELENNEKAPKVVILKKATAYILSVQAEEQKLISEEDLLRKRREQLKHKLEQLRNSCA
# Protocol: FIG. 4: A) Endogenous MYC:MAX (upper panel) and FRA1:JUN (lower panel) interactions as visualized as fluorescent red dots by isPLA. Nuclei were counterstained with DAPI (blue). Cells were treated with 10 μM of indicated compounds for 16 hours and subjected to isPLA using pairs of MYC and MAX and of FRA1 and JUN antibodies, respectively. As negative control, primary antibody pairs but only one oligo-conjugated secondary antibody was used. B) Quantification of MYC:MAX and C) FRA1:JUN isPLA, representing an average number of nuclear dots per cell from three microscopic fields normalized to corresponding values for DMSO-treated cells. […] 1st-4th lanes from top; coimmunoprecipitated MAX, immunoprecipitated MYC, total levels of MAX and ACTIN, respectively, as determined by western blot analysis. E) MYC:MAX GLuc assay in cells. […] 24 hours later cells were treated with […] of Example 1, Example 2 and control compound for 16 hours and thereafter analyzed in a dual luciferase assay. The ratio of Gaussia/Firefly luciferase luminescence were calculated and normalized to DMSO-treated cells.
# The protein fragment complementation assay using the Gaussia luciferase (GLuc) has been described (Remy, I. & Michnick, S. W. A highly sensitive protein-protein interaction assay based on Gaussia luciferase. Nat Methods 3, 977-979, doi:10.1038/nmeth979 (2006)). […] 24 hours later cells were treated with compound or DMSO. After another 17 hours the cells were harvested and lyzed in passive lysis buffer (Promega) supplemented with complete protease inhibitor (Roche). After 60 min incubation at room temperature 20 μM D-luciferin was added (substrate of Firefly luciferase) and luminescence was measured in a Lumat LB9501 (Berthold) or OmegaFluostar (BMG Labtech) luminometer. Directly after, the Gaussia luciferase substrate Coelenterazine (Promega) was added to a final concentration of 20 μM and the luciferase activity was measured. The ratio between Gaussia and Firefly luciferase values were calculated and normalized to DMSO-treated control cells.
# [4] = test system: non-MYCN-amplified neuroblastoma cells (SK-N-F1, SK-N-RA, SK-N-AS); assay: Assay 5A neuroblastoma cell growth (WST-1), non-MYCN-amplified; assay type: cell-based; details: Homo sapiens, SK-N-AS
# Protocol: as §1, §2, §3
# [5] = test system: Tgr and H0Myc3 Rat1 fibroblast cells; assay: Assay 5B Tgr cell growth (WST-1), MYC expressing; assay type: cell-based, rat; details: Tgr/H0Myc3 vs H015.19
# Protocol: as §1
# Assay 5B: Tgr Cell Growth
# Tgr cells were treated at 37° C. and 5% CO2 at 48 hours with Example and Example 2. H015.19 is a MYC null rat cell line derived from Tgr1 (parental cells), while H0Myc3 cells were generated from the MYC null cells by reconstitution of a MYC gene(Mateyak, M. K., Obaya, A. J., Adachi, S. & Sedivy, J. M. Phenotypes of c-Myc-deficient rat fibroblasts isolated by targeted homologous recombination. Cell Growth Differ 8, 1039-1048 (1997)).
# T1 sequence (P01106 368-449 limits assumed): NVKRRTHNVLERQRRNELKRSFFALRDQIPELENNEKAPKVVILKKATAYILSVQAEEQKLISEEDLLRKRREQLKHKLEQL
SMILES,Binding relative to Rmax [1] [Response Units],"GI50 ([2]; first run, 48 hours) [µM]",GI50 ([2]; second run) [µM],inhibition at 10 µM [3] [%],"GI50 ([4]; 48 h, first run) [µM]",GI50 ([4]; second run) [µM],discrimination between cells dependent on MYC status [5]
"CCOc1ccc2nc3cc(/N=N/c4ccc(O)c(CO)c4)ccc3c(N)c2c1 [Example 10, 4-[(E)-2-(9-amino-7-ethoxyacridin-3-yl)diazen-1-yl]-2-(hydroxymethyl)phenol]",–,–,15,–,–,–,–
"CCOc1ccc2nc3cc(/N=N/c4ccc(O)c(CN(C)C)c4)ccc3c(N)c2c1 [Example 12, 4-[(E)-2-(9-amino-7-ethoxyacridin-3-yl)diazen-1-yl]-2-((dimethylamino)methyl)phenol]",–,–,25,–,–,–,–
"CCOc1ccc2nc3cc(/N=N/c4ccc(O)c(CNCCN(C)C)c4)ccc3c(N)c2c1 [Example 8, 4-[(E)-(9-amino-7-ethoxy-acridin-3-yl)azo]-2-[[2-(dimethylamino)ethylamino]methyl]phenol hydrochloride]",–,–,4,–,–,10,–
"CCOc1ccc2nc3cc(/N=N/c4ccc(O)c(CN(C)CCN(C)C)c4)ccc3c(N)c2c1 [Example 9, 4-[(E)-(9-amino-7-ethoxy-acridin-3-yl)azo]-2-[[2-(dimethylamino)ethyl-methyl-amino]methyl]phenol]",–,–,6,–,–,11,–

# Now those with a lower GI50 ([2]; second run), led by results:
Binding relative to Rmax [1] [Response Units],"GI50 ([2]; first run, 48 hours) [µM]",GI50 ([2]; second run) [µM],inhibition at 10 µM [3] [%],"GI50 ([4]; 48 h, first run) [µM]",GI50 ([4]; second run) [µM],SMILES,discrimination between cells dependent on MYC status [5]
1.2,4,2.5,65,12.5,10,"CCOc1ccc2nc3cc(/N=N/c4cc(C)c(O)cc4C)ccc3c(N)c2c1 [Example 2, 4-((9-amino-7-ethoxyacridin-3-yl)diazenyl)-3,6-dimethylphenol]",discriminated between cells dependent on MYC status
1.5,–,2,–,–,> 25,"CCOc1ccc2nc3cc(/N=N/c4c(C)cc(O)cc4C)ccc3c(N)c2c1 [Example 3, 4-((9-amino-7-ethoxyacridin-3-yl)diazenyl)-3,5-dimethylphenol hydrate]",–
0.8,–,1,–,–,> 25,"CCOc1ccc2nc3cc(/N=N/c4cc(C)c(O)c(C)c4)ccc3c(N)c2c1 [Example 6, 4-((9-amino-7-ethoxyacridin-3-yl)diazenyl)-2,6-dimethylphenol]",–

# — US11896589B2, “Diazinyl amino acridines and medical uses thereof” (MyCural Therapeutics AB, priority 2018, dated 2024)
